Measured values reported in US20060100264A1, “3,3'-Diindolylmethane immune activating compositions” (priority 2004, published 2006).

Tests used:
[1] = test system: OAS-Luc reporter (promoter and 5′-flanking region of p69-OAS); assay: OAS-Luc luciferase reporter in transiently transfected MCF-7 cells; type: cell-based, human; conditions: 24 h treatment
Protocol: In a further experiment to examine whether the inducing effects of DIM are at the transcriptional level, the effect of DIM on activities of two luciferase reporter constructs, OAS-Luc (12) and 4GAS-Luc (13) was examined. OAS-Luc contains the promoter and 5′-flanking region (−972) of p69-OAS and GAS-Luc contains four repeats of the consensus GAS element. MCF-7 cells transiently transfected with these reporter constructs were treated with IFNγ, DIM, or a combination of both for 24 h. […] IFNγ induced transcriptional activity of this reporter in a concentration dependent manner to a maximum of about 1.8 fold, which is less than the response of the endogenous gene of about 5.0 fold. In marked contrast to the maximum effects of combined treatments of the inducers on endogenous gene expression (nearly 12-fold increase compared to vehicle treated cells), the reporter gene construct responded with less than a 3-fold increase over the controls.

[2] = test system: HLA-A, HLA-B, HLA-C, β-microtubulin, TAP1 and TAP2; assay: RT-PCR of MHC-I components and transporters in MCF-7 cells; type: cell-based, human
Source text: RT-PCR was used to examine the expression of the four major components of human MHC-I, including HLA-A, HLA-B, HLA-C, and β-microtubulin, as well as two important associated transporters, TAP1 and TAP2. […] As expected, the expressions of these genes were increased 2-8 fold by treatment with IFNγ.

[3] = Estimated blood concentration of DIM from dietary broccoli; set-up: species or system human; conditions: approximately 12 mg DIM from 200 g broccoli daily, maximum absorption assumed
Protocol: We observed the immune response activating activity of DIM at physiologically relevant concentrations. A person of average weight who consumes 200 g of broccoli daily will obtain approximately 12 mg of DIM. With maximum absorption of DIM, the blood concentration of DIM will reach approximately 10 μM. Therefore, in vivo concentrations of DIM from dietary Brassica vegetables represent the effective levels of DIM in vitro.

[4] = test system: DMBA-induced mammary tumorigenesis; conditions: repeated oral administrations during promotion stage, rodents; cited from earlier work

c1ccc2c(Cc3c[nH]c4ccccc34)c[nH]c2c1 [DIM, 3,3′-Diindolylmethane]
Maximum induction of OAS-Luc reporter [1]: about 2.3 fold | Expression levels of the six genes (MHC-I components, TAP1, TAP2) above vehicle/background [2]: not significantly enhanced | Blood concentration of DIM [3]: approximately 10 μM | Inhibition of tumor growth [4]: ≤ 95%
